Read-outs that look alike come from different tables or passages of the source.
Experiments:
[1] = system: H. pylori planktonic cells (NCTC 11637); assay: Bactericidal effect against H. pylori planktonic cells; assay type: cell-based, Helicobacter pylori
Excerpt: The investigation aimed at evaluating the difference in susceptibility to ST 722 of planktonic and sessile Helicobacter cells, using in the latter case an "in vitro" experimental model, which closely resembled the clinical condition occurring "in vivo" in type-B gastritis. We used HEp-2 cells, an epithelial cell line which harbors the same membrane glycolipid receptors for H. pylori as those harbored by the mucous cells of the antral gastric mucosa (MEGRAUD, F., TRIMOULET, P., LAMOULIATTE, H. and BOYANOVA, L., 1991. Bacterial effect of Amoxicillin on "H. pylori" in an in vitro model using epithelial cells. Antimicrob. Agents Chemoter. 35 (5): 869-872 and LINGWOOD, C. A., LAW, H. and PELLIZANI, A., 1989. Gastric glycerolipid as a receptor for Campylobacter pylori. Lancet i: 238-241). Additionally, the viability of HEp-2 cells (either infected or not) was evaluated following "in vitro" ST 722 treatment. The degree of cytotoxicity was assessed by cytofiuorimetric analysis of Propidium Iodine-stained HEp-2 cells.
Helicobacter pylori NCTC 11637.
The antibacterial and cytotoxic activity of ST 722 against Helicobacter and HEp-2 cells, respectively, was evaluated by using 3 different ST 722 concentrations, namely 0.1, 1.56 (i.e. the MIC value vs. H. pylori NCTC 11637) and 4 mcg/ml.
After making geometric dilutions of the suspensions (0.1 ml of each dilution inoculated onto each plate in triplicate), the plates were incubated for 7 days in a microaerobic atmosphere, and the plates with 30 to 200 CFU were counted.
The ST 722 activity against Helicobacter planktonic cells was determined in the same experimental conditions in the absence of HEp-2 cells. Finally, the results are expressed as CFU per flask of each sample with respect to the relevant control (i.e. sessile or planktonic cultures).

[2] = system: Helicobacter pylori NCTC 11637; assay: MIC in agar (agar dilution); assay type: cell-based; settings: for MIC: Helicobacter pylori, NCTC11637
Description: In this experiment the activity of ST 722 and ST 712 against Campylobacter and Helicobacter was investigated.
Campylobacter fetus ATCC 27374, Campylobacter coli LI 048, Campylobacter jejuni 84-ISS, and Helicobacter pylori NCTC 11637.
The culture medium was Columbia agar base supplemented with 7% (V/V) defribinated horse blood (DHB) for Campylobacter strains, and the same medium additioned with Vitox (Oxoid) for Helicobacter strain.
The Campylobacter and Helicobacter strains, preserved at -80° C. in DHB containing 10% (V/V) glycerol, were thawed and grown, in their respective culture medium, in culture flasks, which were incubated for 48 hours at 37° C. in a 10% CO2 atmosphere. After this first growth cycle, the bacteria were allowed to go through a second growth cycle in the same conditions as above.
The bacterial "patina" was then harvested by resuspension in 4-5 ml of Mueller-Hinton broth, the turbidity of which was then assessed according to Mc Farland's criteria (BRAY W. E., Clinical Laboratory Methods, 5th Ed. C. V. MOSBY, St. Louis, Mo. 1957). […]
With a Steers-type multipoint inoculator (STEERS E., FOLTZ E. L., GRAVES S., RIDEN J., 1959. Inocula-replicating apparatus for routine testing of antibacterial susceptibility to antibiotics. Antibiot. Chemoter. 9: 307-311) 1-μl volumes of the above standardized suspensions were spot-transferred into the wells of a 96-well microtiter plate, which had previously been filled with 0.2 ml/well of Mueller-Hinton agar 5% DHB, containing the test substances at different concentrations.
The plates was then incubated for 48/72 hours at 37° C. in a 10% CO2 atmosphere.

[3] = system: murine lymphoid organs (spleen and thymus); assay: Test 2: weight of murine lymphoid organs after repeated oral administration; assay type: in vivo, mouse (male B6 D2 F1); settings: 100 mg/kg/day for 7 consecutive days
Description: Evaluation of the effect of repeated oral administrations of ST 722 on the weight of murine lymphoid organs (spleen and thymus).
Male B6 D2 F1 mice (C. River) aged 7 weeks (7-8 animals each group) were orally treated with the substance ST 722 at the dose of 100 mg/kg/day for 7 consecutive days. Twenty-four hours after the last administration, the animals were sacrificed, the organs removed and weighed.

Gram- bacterial strains = assay: Mean MIC in broth and resistant strain number, Gram- strains; assay type: cell-based; settings: 18 h; Gram- strains; versus susceptible strains; read-out: Mean MIC values
Outline: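 An overnight Mueller-Hinton culture was matched to 0.5 McFarland turbidity and adjusted to 5.0×10^4 CFU/ml final. Equal volumes of this suspension and two-fold compound dilutions were combined, then incubated 18 h at 37 °C before the minimal inhibitory concentration was read.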

`CCCCCCCCCCCOC(=O)CC(C[N+](C)(C)C)OC(=O)CC(C)C` [ST 722, Isovaleryl-L-Carnitine Undecyl Ester Chloride] was tested, and the “Planktonic cells (CFU per flask)” value ([1]; 3-h contact, 0.1 mcg/ml) was 9.50 × 10^5 CFU per flask, the “Planktonic cells (CFU per flask)” value ([1]; 3-h contact, 1.56 mcg/ml) was 3.50 × 10^5 CFU per flask and the “Planktonic cells (CFU per flask)” value ([1]; 3-h contact, 4.0 mcg/ml) was 1.00 × 10^5 CFU per flask. For the same molecule, the “Planktonic cells (CFU per flask)” value ([1]; 24-h contact, 0.1 mcg/ml) was 9.00 × 10^7 CFU per flask, the “Planktonic cells (CFU per flask)” value ([1]; 24-h contact, 1.56 mcg/ml) was 4.05 × 10^6 CFU per flask and the “Planktonic cells (CFU per flask)” value ([1]; 24-h contact, 4.0 mcg/ml, control 5.35 × 10^8) was 1.85×10^6 CFU per flask. The complete medium sterilization ([1]; planktonic cells) was “a complete medium sterilization was not attained”, the MIC ([2]; I = inoculum of 1.0 × 10^5 cells/ml, read-out: MIC in agar) was 1.56 µg/mL and the MIC ([2]; agar medium, inoculum not given, read-out: MIC vs. H. pylori NCTC 11637) was 1.56 µg/mL. The MIC in agar ([2]; II = inoculum of 1.0 × 10^6 cells/ml) was 1.56 µg/mL, the “antibacterial activity for Helicobacter and Campylobacter” value ([2]; agar, Helicobacter and Campylobacter strains) was “possess an antibacterial activity” and the Body weight [3] was 22.74 ± 0.37 g. For the same molecule, the Spleen weight [3] was 77.88 ± 2.38 mg, the Thymus weight [3] was 52.88 ± 3.20 mg and the “immunotoxic effect on the parameters examined” value [3] was “did not provoke any immunotoxic effect”. It also gave an MIC (Gram- bacterial strains) of 35.7 µg/mL.

Source: patent publication US5498632A, “Esters of acyl carnitines with long-chain aliphatic alcohols and pharmaceutical compositions containing same having antibacterial activity” (Sigma-Tau Industrie Farmaceutiche Riunite S.p.A., priority 1992, dated 1996)
